Experimental data as given in patent US5663207A, “Gem-dichlorocyclopropanes as antitumor agents” (priority 1995, dated 1997).
Like-named read-outs stand apart in the source and are kept apart here.

What was measured:
estrogen receptor = molecular target: T1, estrogen receptor (Rattus norvegicus, UniProt P06211); experiment: Receptor binding assay: displacement of [3H]-estradiol from rat uterine cytosol; parameters: species or system rat (Sprague-Dawley); details: for [3H]-estradiol displacement curve (in words): rat uterine cytosolic estrogen receptor; for RBA (relative binding affinity): relative to estradiol = 100%
T1 construct: ovariectomized rat uterine cytosolic estrogen receptor preparation; from tissue; host or cells: uterine cytosol of ovariectomized Sprague-Dawley rats (immature rats from Sasco are named as uterus source, mature ovariectomized rats)
T1 sequence (P06211 1-600): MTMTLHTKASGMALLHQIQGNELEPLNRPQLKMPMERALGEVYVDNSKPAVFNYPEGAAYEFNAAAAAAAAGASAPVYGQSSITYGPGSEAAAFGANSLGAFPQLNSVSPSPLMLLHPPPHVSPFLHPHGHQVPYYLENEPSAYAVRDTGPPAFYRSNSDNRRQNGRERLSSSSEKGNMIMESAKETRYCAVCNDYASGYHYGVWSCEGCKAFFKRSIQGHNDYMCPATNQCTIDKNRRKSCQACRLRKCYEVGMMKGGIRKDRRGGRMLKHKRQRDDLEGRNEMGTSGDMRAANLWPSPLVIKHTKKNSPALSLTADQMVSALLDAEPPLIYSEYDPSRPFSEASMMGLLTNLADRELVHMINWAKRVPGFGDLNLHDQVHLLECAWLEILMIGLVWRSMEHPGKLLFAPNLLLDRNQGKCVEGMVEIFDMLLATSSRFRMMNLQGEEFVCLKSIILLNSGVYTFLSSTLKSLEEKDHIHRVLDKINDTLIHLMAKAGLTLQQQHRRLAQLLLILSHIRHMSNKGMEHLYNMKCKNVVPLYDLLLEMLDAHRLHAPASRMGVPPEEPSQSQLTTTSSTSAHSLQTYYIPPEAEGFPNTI
Description: (§1) The biological evaluation of the test compounds consisted of the in vitro rat cytosolic estradiol receptor binding assay, the in vivo immature mouse uterotrophic (estrogenic) and antiuterotrophic (antiestrogenic) assays, and the in vitro suppression of the proliferation of the ER positive MCF-7 human breast cancer cell line. Estradiol (pure agonist), TAM (agonist in mice and antagonist in MCF-7), MER 25 (pure antagonist) and Analog II (antagonist in mice) were used in the assay as standards.
(§2) Vital-free immature female Swiss-Webster mice were obtained at 17-19 days of age from Sasco weighing 8-10 g, and were used in the uterotrophic and antiuterotrophic assays. Immature female Sprague-Dawley rats, obtained at 17-19 days of age from Sasco, weighing 28-33 g, were used as sources of uteri for the estradiol receptor binding assay. Animals were housed in wire topped polycarbonate cages at six animals per cage, with the environment controlled at 25° C. and a 12 h light/dark cycle. The animals received a diet of Wayne Lab Blox rodent chow and tap water ad libitum.
The RBAs of the test compounds were determined by the displacement of [^3 H]-estradiol in vitro, as described previously (DAY, B. W., […], R. A., JAIN, P., PENTO, J. T., MOUSISSIAN, G. K. AND MEYER, K. L. (1991), "Synthesis and biological evaluation of a series of 1,1-dichloro-2,2,3-triarylcyclopropanes as pure antiestrogens", Journal of Medicinal Chemistry, 34, 842; KORENMAN, S. G. (1969), "Comparative binding affinity of estrogens and its relation to estrogenic potency", Steroid, 13, 163). Mature female Sprague-Dawley rats were ovariectomized at least two weeks prior to the receptor binding experiment. Each test compound was assayed at three concentrations in duplicate over a range of 10^-3 -10^-5 M and 10^-6 -10^-8 M for the estradiol standard. The non-specific binding was determined by a parallel incubation of each compound with the addition of diethylstilbestrol to give a final concentration of 2×10^-5 M DES which was sufficient to saturate all the estrogen receptors present in the cytosolic fraction. Specific displacement for each compound was determined by subtraction of nonspecific displacement from total displacement. The [^3 H]-estradioldisplacement curve for each test compound was determined by linear repression analysis and plotted graphically. The relative binding affinity for each compound was calculated (BLISS, C.I. (1967), "The statistics in biology", McGraw Hill, Inc: New York).
^a Determined by competitive radiometric binding assay with rat
uterine cytosol as a source of receptor, [^3 H]estradiol as tracer,
and dextrancoated charcoal as absorbant for free ligand.
^c Binding affinities are expressed relative to that of estradiol =
100% (RBA = relative binding affinity) and are the average of duplicate
determinations minus nonspecific binding.
The relative binding affinities (RBAs), as determined by the competitive radiometric binding assay and measured by [^3 H]-estradiol displacement from the ovariectomized rat uterine cytosolic estrogen receptor preparation, after subtracting non-specific receptor binding, were calculated for all of the synthesized target compounds, TAM, MER 25, Analog II, and estradiol. The displacement curves were plotted as percent receptor-bound [^3 H]-estrodiol versus concentration of test compounds (not shown) and the receptor binding affinity of each compound is presented in Table II.

[1] = tested on: MCF-7 human breast cancer cells; experiment: In vitro MCF-7 human breast cancer cell growth inhibition assay; type: cell-based; details: for inhibition at 1 µM: Homo sapiens
Description: as §1
MCF-7 (estrogen-receptor positive) human breast cancer cells (obtained from the Michigan Cancer Foundation, Detroit, Mich.) were grown at 37° C. in 75 cm^2 tissue culture (T-75) flasks, as monolayer cultures in RPMI 1640 phenol red-free media supplemented with 2 mM L-glutamine, gentamicin (50 μg/mL), penicillin (100 units/mL), streptomycin (100 μg/mL ) and calf serum (5%). Cultures were grown in an incubator 37° C. in a humid 5% CO2 atmosphere, and fed on alternate days. Expotential growth was maintained by subculturing at eight day intervals when the cells per T-75 flask reached 10 to 12×10^6 cells. Cells were trypsinized, washed and plated in multiwell plates at a density of 5×10^4 cells/well in 3 mL of RPMI 1640 media. The cells were allowed to attach and were in logarithmic growth when the test compounds were added. The test compounds (10^-6 M) in the presence or absence of a 10-fold lower dose of estradiol were dissolved in a polyethylene glycol 400: ethanol (55:45) mixture and added in the culture media in duplicate. Control samples received vehicle alone at the same concentration used in the treatment groups. The final concentration of the vehicle mixture was 0.1% of the incubation media. Cell growth was measured on alternate days using the hemocytometric trypan blue exclusion method. Percent inhibition of MCF-7 cells was calculated as the ratio of the control mean cell count per well minus the treatment group mean cell count per well to the control mean cell count per well, multiplied by 100.
^b % MCF7 inhibition was calculated as follows: […]
Thirteen compounds, Analog II, TAM, and MER 25 were tested for their antiproliferative activity in the MCF-7 human breast cancer cell line (Table II). Compounds were tested at a concentration of 10^-6 M in the presence or absence of 10^-7 M estradiol to assess their ability to alter the growth of the calls (Table II). The 10^-6 M concentration was selected since it was reported that the inhibition of the MCF-7 cells by antiestrogens and TAM occurred either at that concentration or less, and were both selective and estrogen receptor specific. Concentrations of antiestrogens greater than 5×10^-6 M were reported to have nonspecific cytotoxic effects (BRIAND, P. AND […], A. E. (1984), "Effect of estrogen and antiestrogen on the human breast cancer cell line MCF-7 adapted to growth at low serum concentration", Cancer Research, 44, 1114).

[2] = tested on: Immature Swiss-Webster female mice (uterine weight); experiment: Uterotrophic assay for estrogenic activity in immature mice; type: in vivo, mouse (Swiss-Webster); details: for uterine weight response (estrogenic activity, in words): doses of 5, 25 and 100 μg (total dose)
Description: The biological evaluation of the test compounds consisted of the in vitro rat cytosolic estradiol receptor binding assay, the in vivo immature mouse uterotrophic (estrogenic) and antiuterotrophic (antiestrogenic) assays, and the in vitro suppression of the proliferation of the ER positive MCF-7 human breast cancer cell line.
as §2
Immature Swiss-Webster female mice (8-15 g) at 17-19 days of age were used. Estradiol was used in the dosage range of […] (total dose) as the assay standard. Each cyclopropyl analogue was examined at doses of 5, 25, and 100 μg (total dose). […] Estrogenic activity was measured as an increase in uterine weight produced by each test compound.

[3] = MCF7, 10^-6 M, versus control mean cell count, read-out: MCF-7 Inhibition
[4] = MCF7, 10^-6 M, printed as dash with footnote g, read-out: MCF-7 Inhibition
[5] = retested at 100, 250, and 500 μg
[6] = average of duplicate determinations minus nonspecific binding
[7] = MCF7, read-out: MCF-7 Inhibition

SMILES	RBA ranking (in words) (estrogen receptor; among the compounds tested)	[3H]-estradiol displacement curve (in words) (estrogen receptor)	RBA (relative binding affinity) (estrogen receptor; given as dash with footnote e)	effect on MCF-7 cell growth (in words) ([1]; 10^-6 M)	inhibition at 1 µM [1, 3] [%]	uterine weight response (estrogenic activity, in words) [2]	inhibition at 1 µM [1, 4] [%]	uterotrophic response on retest (in words) [2, 5]	RBA (relative binding affinity) (estrogen receptor; [6]) [%]	inhibition at 1 µM [1, 7] [%]	uterotrophic response on retest (in words) ([2]; retested at 25, 100, and 250 μg)
COc1ccc([C@H]2[C@@H](c3ccccc3)C2(Cl)Cl)cc1 (relative stereo) [Compound 8, 1,1-Dichloro-cis-2-(p-methoxyphenyl)-3-phenylcyclopropane]	lowest RBA	dose-dependent displacement curves with shallower slopes than their acetoxy and phenolic analogues	--^e (Less than 0.01%.)	inhibited cell growth	25.3	well below the control group	–	–	–	–	–
COc1ccc([C@H]2[C@H](c3ccccc3)C2(Cl)Cl)cc1 (relative stereo) [Compound 16, 1,1-Dichloro-trans-2-(p-methoxyphenyl)-3-phenylcyclopropane]	–	dose-dependent displacement curves with shallower slopes than their acetoxy and phenolic analogues	--^e (Less than 0.01%.)	did not	–	slight increase in uterine weight at doses of 25 and 100 μg	< 10	no significant uterotrophic responses	–	–	–
CC(=O)Oc1ccc([C@H]2[C@H](c3ccccc3)C2(Cl)Cl)cc1 (relative stereo) [Compound 18, 1,1-Dichloro-trans-2-(p-acetoxyphenyl)-3-phenylcyclopropane]	–	–	–	did not	–	–	< 10	–	0.25	–	–
COc1ccc([C@@H]2[C@H](c3ccc(OC)cc3)C2(Cl)Cl)cc1 [Compound 14, 1,1-Dichloro-cis-2,3-bis-(p-methoxyphenyl) cyclopropane]	–	dose-dependent displacement curves with shallower slopes than their acetoxy and phenolic analogues	–	inhibited cell growth	37	–	–	–	0.01	–	–
COc1ccc(C2(c3ccc(OC)cc3)CC2(Cl)Cl)cc1 [Compound 23, 1,1-Dichloro-2,2-bis-(p-methoxyphenyl)cyclopropane]	–	dose-dependent displacement curves with shallower slopes than their acetoxy and phenolic analogues	--^e (Less than 0.01%.)	inhibited cell growth	–	well below the control group	–	–	–	30	–
COc1ccc(C2(c3ccc(O)cc3)CC2(Cl)Cl)cc1 (stereo not shown) [Compound 24, 1,1-Dichloro-2-(p-methoxyphenyl)-2-(p-hydroxyphenyl)cyclopropane]	–	–	–	only 23 inhibited cell growth	–	–	–	–	0.02	< 10	–
Oc1ccc(C2(c3ccc(O)cc3)CC2(Cl)Cl)cc1 [Compound 25, 1,1-Dichloro-2,2-bis-(p-hydroxyphenyl) cyclopropane]	–	–	–	only 23 inhibited cell growth	–	well below the control group	–	–	0.04	< 10	–
COc1ccc(C2(c3ccc(OC)cc3)C(Cl)(Cl)C23CCCCC3)cc1 [Compound 29, 1,1-Dichloro-2,2-bis-(p-methoxyphenyl)-spiro[2.5]octane]	–	dose-dependent displacement curves with shallower slopes than their acetoxy and phenolic analogues	--^e (Less than 0.01%.)	active inhibitors of cell growth	–	slight increase in uterine weight at doses of 25 and 100 μg	–	no significant uterotrophic responses	–	37	–
CC(=O)Oc1ccc(C2(c3ccc(OC(C)=O)cc3)C(Cl)(Cl)C23CCCCC3)cc1 [Compound 31, 1,1-Dichloro-2,2-bis-(p-acetoxyphenyl)-spiro[2.5]octane]	–	–	–	–	–	well below the control group	–	–	0.05	< 10	–
COc1ccc(C2(c3ccc(OC)cc3)C(c3ccccc3)C2(Cl)Cl)cc1 (stereo not shown) [Compound 35, 1,1-Dichloro-2,2-bis-(p-methoxyphenyl)-3-phenylcyclopropane]	–	dose-dependent displacement curves with shallower slopes than their acetoxy and phenolic analogues	--^e (Less than 0.01%.)	did not alter cell growth	–	slight increase in uterine weight at doses of 25 and 100 μg	–	–	–	< 10	no significant uterotrophic responses
